Laboratory results from patent US10071081B2, “Compositions of 1,2,4-oxadiazole benzoic acid compounds and methods for their use” (PTC Therapeutics, Inc., priority 2003, dated 2018).

Assays:
[1] = test system: mRNA containing a UGA premature termination codon; assay: biochemical assay: rabbit reticulocyte lysate and nonsense-containing luciferase reporter mRNA; details: internal standard
Excerpt: (§1) Two assays were developed for use in high throughput screens to identify small molecules that promote nonsense suppression. Each assay utilized luciferase because it is a functional reporter gene assay (light is only produced if the protein is functional) and it is extremely sensitive (Light intensity is proportional to luciferase concentration in the nM range). The first assay is a cell-based luciferase reporter assay and the second is a biochemical assay consisting of rabbit reticulocyte lysate and a nonsense-containing luciferase reporter mRNA. In the cell-based assay, a luciferase reporter construct containing a UGA premature termination codon was stably transfected in 293T Human Embryonic Kidney cells. In the biochemical assay, mRNA containing a UGA premature termination codon was used as a reporter in an in vitro translation reaction using rabbit reticulocyte lysate supplemented with tRNA, hemin, creatine kinase, amino acids, KOAc, Mg(OAc)2, and creatine phosphate. […] Synthetic mRNA was prepared in vitro using the T7 promoter and the MegaScript in vitro transcription kit (Ambion).

[2] = test system: luciferase reporter construct containing a UGA premature termination codon; assay: cell-based luciferase reporter assay; set-up: species or system Human; key to Activity: *****: both extremely high potency and extremely high efficacy of protein synthesis; ****: extremely high potency of protein synthesis and very high efficacy; ****: very high potency of protein synthesis and extremely high efficacy; ***: both very high potency and very high efficacy of protein synthesis; **: very high potency of protein synthesis and significant efficacy; **: significant potency of protein synthesis and very high efficacy; *: significant potency and efficacy of protein synthesis; details: for Activity: ranking combining potency and efficacy of protein synthesis, UGA luciferase reporter stably transfected in 293T Human Embryonic Kidney cells
Description: Activity measurements in Table I were performed in a cell-based luciferase reporter assay (as described in Section 4.2) comprising a luciferase reporter construct containing a UGA premature termination codon that was stably transfected in 293T Human Embryonic Kidney cells. A small molecule, 3-[3-(4-Isopropyl-phenyl)-2,5-dioxo-imidazolidin-1-yl]-benzoic acid, known to allow readthrough of premature termination codons was used was used as an internal standard. Activity measurements are based on the qualitative relation between the minimum concentration of compound required to produce a given protein in a cell (potency) and the maximum amount of protein produced by the cell (efficacy). Potency and efficacy activities are ranked as either extremely high, very high or significant. The combination of these activities is used to determine the activity ranking.
as §1
To determine whether compounds also function in vivo, a stable cell line harboring the UGA nonsense-containing luciferase gene was treated with selected compounds. Cells were grown in standard medium supplemented with 1% penicillin-streptomycin (P/S) and 10% fetal bovine serum (FBS) to 70% confluency and split 1:1 the day before treatment. On the following day, cells were trypsinized and 40,000 cells were added to each well of a 96-well tissue culture dish. Serial dilutions of each compound were prepared to generate a six-point dose response curve spanning 2 logs (30 μM to 0.3 μM). The final concentration of the DMSO solvent remained constant at 1% in each well. Cells treated with 1% DMSO served as the background standard, and cells treated with gentamicin served as a positive control.

| SMILES | Activity [2] | further results |
| --- | --- | --- |
| CC(C)c1ccc(N2CC(=O)N(c3cccc(C(=O)O)c3)C2=O)cc1 [3-[3-(4-Isopropyl-phenyl)-2,5-dioxo-imidazolidin-1-yl]-benzoic acid, reference compound] |  | luciferase activity [1]: increased luciferase activity; luciferase activity ([2]; cell-based assay, internal standard): increased luciferase activity |
| O=C(O)c1cccc(-c2noc(-c3ccc4c(c3)OC(F)(F)O4)n2)c1 [Compound 70, 3-[5-(2,2-Difluoro-benzo[1,3]dioxol-5-yl)-[1,2,4]oxadiazol-3-yl]-benzoic acid] | *** |  |
| O=C(O)c1cccc(-c2noc(-c3ccc4nonc4c3)n2)c1 [Compound 23, 3-(5-Benzo[1,2,5]oxadiazol-5-yl-[1,2,4]oxadiazol-3-yl)-benzoic acid] | **** |  |
| COCCOCCOC(=O)c1cccc(-c2noc(-c3ccccc3F)n2)c1 [Compound 88, 3-[5-(2-Fluoro-phenyl)-[1,2,4]oxadiazol-3-yl]-benzoic acid 2-(2-methoxy-ethoxy)-ethyl ester] | ** |  |
| COc1ccc(Cc2nc(-c3cccc(C(=O)O)c3)no2)cc1 [Compound 61, 3-[5-(4-Methoxy-benzyl)-[1,2,4]oxadiazol-3-yl]-benzoic acid] | ** |  |
| O=C(O)c1cccc(-c2noc(-c3cccnc3Cl)n2)c1 [Compound 63, 3-[5-(2-Chloro-pyridin-3-yl)-[1,2,4]oxadiazol-3-yl]-benzoic acid] | **** |  |
| O=C(O)c1cccc(-c2noc(-c3ccco3)n2)c1 [Compound 21, 3-(5-Furan-2-yl-[1,2,4]oxadiazol-3-yl)-benzoic acid] | **** |  |
| CCCCCOc1ccc(-c2nc(-c3cccc(C(=O)O)c3)no2)cc1 [Compound 02, 3-[5-(4-Pentyloxy-phenyl)-[1,2,4]oxadiazol-3-yl]-benzoic acid] | *** |  |
| COC(=O)c1cccc(-c2noc(-c3ccccc3F)n2)c1 [Compound 86, 3-[5-(2-Fluoro-phenyl)-[1,2,4]oxadiazol-3-yl]-benzoic acid methyl ester] | ** |  |
| O=C(O)c1cccc(-c2noc(-c3ccc(C(F)(F)F)cc3)n2)c1 [Compound 17, 3-[5-(4-Trifluoromethyl-phenyl)-[1,2,4]oxadiazol-3-yl]-benzoic acid] | ***** |  |
| Cc1ccc(F)c(-c2nc(-c3cccc(C(=O)O)c3)no2)c1 [Compound 68, 3-[5-(2-Fluoro-5-methyl-phenyl)-[1,2,4]oxadiazol-3-yl]-benzoic acid] | *** |  |
| COCCOCCOCCOCCOC(=O)c1cccc(-c2noc(-c3ccccc3F)n2)c1 [Compound 90, 3-[5-(2-Fluoro-phenyl)-[1,2,4]oxadiazol-3-yl]-benzoic acid 2-{2-[2-(2-methoxy-ethoxy)-ethoxy]-ethoxy}-ethyl ester] | ** |  |
| O=C(O)c1cccc(-c2noc(-c3ccc(CCl)cc3)n2)c1 [Compound 24, 3-[5-(4-Chloromethyl-phenyl)-[1,2,4]oxadiazol-3-yl]-benzoic acid] | ***** |  |
| Cc1ccsc1-c1nc(-c2cccc(C(=O)O)c2)no1 [Compound 50, 3-[5-(3-Methyl-thiophen-2-yl)-[1,2,4]oxadiazol-3-yl]-benzoic acid] | ***** |  |
| COCc1nc(-c2cccc(C(=O)O)c2)no1 [Compound 43, 3-(5-Methoxymethyl-[1,2,4]oxadiazol-3-yl)-benzoic acid] | * |  |
| O=C(O)c1cccc(-c2noc(C3CC3)n2)c1 [Compound 27, 3-(5-Cyclopropyl-[1,2,4]oxadiazol-3-yl)-benzoic acid] | **** |  |
| O=C(O)c1cccc(-c2noc(C3CCCCC3)n2)c1 [Compound 09, 3-(5-Cyclohexyl-[1,2,4]oxadiazol-3-yl)-benzoic acid] | **** |  |

| SMILES | Activity [2] | further results |
| --- | --- | --- |
| O=C(O)c1cccc(-c2noc(C3CCCC3)n2)c1 [Compound 31, 3-(5-Cyclopentyl-[1,2,4]oxadiazol-3-yl)-benzoic acid] | **** |  |
| O=C(O)c1cccc(-c2noc(-c3ccccc3C(F)(F)F)n2)c1 [Compound 35, 3-[5-(2-Trifluoromethyl-phenyl)-[1,2,4]oxadiazol-3-yl]-benzoic acid] | **** |  |
| CC(C)Cc1ccc(-c2nc(-c3cccc(C(=O)O)c3)no2)cc1 [Compound 07, 3-[5-(4-Isobutyl-phenyl)-[1,2,4]oxadiazol-3-yl]-benzoic acid] | ** |  |
| O=C(O)c1cccc(-c2noc(-c3ccc(-n4cccc4)cc3)n2)c1 [Compound 41, 3-[5-(4-Pyrrol-1-yl-phenyl)-[1,2,4]oxadiazol-3-yl]-benzoic acid] | **** |  |
| O=C(O)c1cccc(-c2noc(-c3ccc(-c4ccccc4)cc3F)n2)c1 [Compound 75, 3-[5-(3-Fluoro-biphenyl-4-yl)-[1,2,4]oxadiazol-3-yl]-benzoic acid] | **** |  |
| O=C(O)c1cccc(-c2noc(-c3cc(C(F)(F)F)cc(C(F)(F)F)c3)n2)c1 [Compound 16, 3-[5-(3,5-Bis-trifluoromethyl-phenyl)-[1,2,4]oxadiazol-3-yl]-benzoic acid] | **** |  |
| COc1ccc(-c2noc(-c3ccc(F)cc3)n2)cc1C(=O)O [Compound 76, 5-[5-(4-Fluoro-phenyl)-[1,2,4]oxadiazol-3-yl]-2-methoxy-benzoic acid] | * |  |
| O=C(O)c1cc(-c2noc(-c3ccc(F)cc3)n2)ccc1F [Compound 72, 2-Fluoro-5-[5-(4-fluoro-phenyl)-[1,2,4]oxadiazol-3-yl]-benzoic acid] | *** |  |
| Cc1ccc(-c2nc(-c3cccc(C(=O)O)c3)no2)cc1 [Compound 04, 3-(5-p-Tolyl-[1,2,4]oxadiazol-3-yl)-benzoic acid] | ***** |  |
| COc1cc(-c2nc(-c3cccc(C(=O)O)c3)no2)cc(OC)c1OC [Compound 10, 3-[5-(3,4,5-Trimethoxy-phenyl)-[1,2,4]oxadiazol-3-yl]-benzoic acid] | *** |  |
| CC(C)(C)c1nc(-c2cccc(C(=O)O)c2)no1 [Compound 22, 3-(5-tert-Butyl-[1,2,4]oxadiazol-3-yl)-benzoic acid] | * |  |
| O=C(O)c1cccc(-c2noc(-c3ccccc3)n2)c1 [Compound 08, 3-(5-Phenyl-[1,2,4]oxadiazol-3-yl)-benzoic acid] | ***** |  |
| O=C(O)c1cccc(-c2noc(-c3cccc(OC(F)(F)F)c3)n2)c1 [Compound 47, 3-[5-(3-Trifluoromethoxy-phenyl)-[1,2,4]oxadiazol-3-yl]-benzoic acid] | **** |  |
| O=C(O)c1cccc(-c2noc(Cc3ccc(Cl)cc3)n2)c1 [Compound 33, 3-[5-(4-Chloro-benzyl)-[1,2,4]oxadiazol-3-yl]-benzoic acid] | **** |  |
| [N-]=[N+]=Nc1ccc(-c2nc(-c3cccc(C(=O)O)c3)no2)cc1 [Compound 94, 3-[5-(4-Azido-phenyl)-[1,2,4]oxadiazol-3-yl]-benzoic acid] | ***** |  |
| CC(C)c1nc(-c2cccc(C(=O)O)c2)no1 [Compound 15, 3-(5-Isopropyl-[1,2,4]oxadiazol-3-yl)-benzoic acid] | **** |  |
| O=C(O)c1cccc(-c2noc(COc3cccc(Cl)c3)n2)c1 [Compound 51, 3-[5-(3-Chloro-phenoxymethyl)-[1,2,4]oxadiazol-3-yl]-benzoic acid] | ** |  |
